Patent US20090155784A1, “ASSESSMENT OF ASTHMA AND ALLERGEN-DEPENDENT GENE EXPRESSION” (Wyeth, priority 2007, published 2009)

System: PBMCs from healthy volunteers
Assay: HG-U133A baseline gene expression in PBMCs of healthy volunteers (HV), cPLA2 inhibitor in the absence of allergen (no AG)
Type: cell-based, human
Excerpt: PBMCs were stimulated in vitro with a cocktail containing 4 different allergens from house dust mite, ragweed and cat. Recombinant allergens, Der p1, Der f2, Fel d1 (Indoor Biotech, Charlottesville, Va.) and natural ragweed allergen (Allergy Lab, Seattle, Wash.) were selected and screened for endotoxin contamination (LAL Endotoxin Test, Catalog #HIT302, sensitivity, 0.0001 Eu/ml, Cell Sciences, Canton, Mass.). The sensitivity of the subjects was unknown but the allergens were chosen based on the estimate that 80% of allergic individuals are believed to react to one or more of these allergens. Culture medium contained RPMI-1640 (Sigma) with 10% heat inactivated FCS (Sigma St. Louis, Mo.) and 100 unit/mL Penicillin and […] Streptomycin and 0.292 mg/mL Glutamine (GIBCO RL Invitrogen, Carlsbad, Calif.). The final allergen cocktail concentrations in culture medium were: Der p1 and Der f2 (dust mite), 1 mg/ml; Fel d1 (cat), 1.25 mg/ml; ragweed, 125 mg/ml. The total level of endotoxin contamination in culture medium was 0.057 Eu/ml. The cPLA2 inhibitor 4-{3-[1-benzhydryl-5-chloro-2-(2-{[(2,6-dimethylbenzyl)sulfonyl]amino}ethyl)-1H-indol-3-yl]propyl}benzoic acid was used at a concentration of 0.3 μM/ml. Zileuton, a 5-lipoxygenase inhibitor, was added at a concentration of 5 μM. The inhibitory activity of both the cPLA2 inhibitor and Zileuton samples were verified in a human whole blood assay. After 6 days in culture approximately 200 μL of supernatant was removed using an 8-channel pipettor without disturbing the cell pellet and placed into a collection plate for cytokine ELISA assays. To the remaining cell pellet 100 μL of RLT lysis buffer containing 1% beta-mercaptoethanol was added and snap frozen for RNA purification.
RNA was purified using QIA shredders and Rneasy mini kits (Qiagen, Valencia, Calif.). PBMC pellets frozen in RLT lysis buffer containing 1% β-mercaptoethanol were thawed and processed for total RNA isolation using the QIA shredder and RNeasy mini kit. A phenol:chloroform extraction was then performed, and the RNA was repurified using the RNeasy mini kit reagents. Eluted RNA was quantified using a Spectramax96 well plate UV reader (Molecular Devices, Sunnyvale, Calif., USA) monitoring A260/280 OD values. The quality of each RNA sample was assessed by capillary electrophoresis alongside an RNA molecular weight ladder on the Agilent 2100 bioanalyzer (Agilent Technologies, Palo Alto, Calif., USA). RNA samples were assigned quality values of intact (distinct 18S and 28S bands); partially degraded (discernible 18S and 28S bands with presence of low molecular weight bands) or completely degraded (no discernible 18S and 28S bands).
Labeled targets for oligonucleotide arrays were prepared using a modification of the procedure described by Lockhart et al. (Lockhart (1996) Nat. Biotechnol. 14:1675-80). Labeled targets were hybridized to the HG-U133A Affymetrix GeneChip Array as described in the Affymetrix technical manual. Eleven biotinylated control transcripts ranging in abundance from 3 parts per million (ppm) to 100 ppm were spiked into each sample to function as a standard curve (Hill (2001) Genome Biol. 2:RESEARCH0055). GeneChip MAS 5.0 software was used to evaluate the hybridization intensity, compute the signal value for each probe set and make an absent/present call.
GeneChips were required to pass the pre-set quality control criteria that the RNA quality metric required a 5′:3′ ratio. Two asthma subjects were excluded from the study due to failure to meet the RNA quality metric and 2 GeneChips from the group treated with cPLA2a inhibitor were excluded for the same reason. The signal value for each probe set was converted into a frequency value representative of the number of transcripts present in 10^6 transcripts by reference to the standard curve (Hill (2001) Genome Biol. 2:RESEARCH0055). […]

[1] = healthy population, no allergen

With `Cc1cccc(C)c1CS(=O)(=O)NCCc1c(CCCc2ccc(C(=O)O)cc2)c2cc(Cl)ccc2n1C(c1ccccc1)c1ccccc1` [cPLA2 inhibitor, 4-{3-[1-benzhydryl-5-chloro-2-(2-{[(2,6-dimethylbenzyl)sulfonyl]amino}ethyl)-1H-indol-3-yl]propyl}benzoic acid] the “probes significantly downregulated in the presence of cPLA2 inhibition” value [1] was 43 probes, the “probes significantly upregulated in the presence of cPLA2 inhibition” value [1] was 36 probes and the “Fold Change cPLA2 inhibitor vs. no AG HV” value (probeset 44673_at, gene SN) was 1.425 fold. The “Fold Change cPLA2 inhibitor vs. no AG HV” value (probeset 58696_at, gene RRP41) was 1.202 fold, the “Fold Change cPLA2 inhibitor vs. no AG HV” value (probeset 200886_s_at, gene PGAM1) was −1.153 fold and the “Fold Change cPLA2 inhibitor vs. no AG HV” value (probeset 200887_s_at, gene STAT1) was 1.158 fold. For the same compound, the “Fold Change cPLA2 inhibitor vs. no AG HV” value (probeset 200923_at, gene LGALS3BP) was 1.268 fold, the “Fold Change cPLA2 inhibitor vs. no AG HV” value (probeset 200976_s_at, gene TAX1BP1) was 1.159 fold and the “Fold Change cPLA2 inhibitor vs. no AG HV” value (probeset 201061_s_at, gene STOM) was 1.242 fold. The “Fold Change cPLA2 inhibitor vs. no AG HV” value (probeset 201090_x_at, gene K-ALPHA-1) was 1.122 fold, the “Fold Change cPLA2 inhibitor vs. no AG HV” value (probeset 201118_at, gene PGD) was 1.22 fold and the “Fold Change cPLA2 inhibitor vs. no AG HV” value (probeset 201298_s_at, gene C2ORF6) was 1.106 fold. For the same compound, the “Fold Change cPLA2 inhibitor vs. no AG HV” value (probeset 201463_s_at, gene TALDO1) was 1.153 fold, the “Fold Change cPLA2 inhibitor vs. no AG HV” value (probeset 201649_at, gene UBE2L6) was 1.19 fold and the “Fold Change cPLA2 inhibitor vs. no AG HV” value (probeset 201785_at, gene RNASE1) was −3.602 fold. The “Fold Change cPLA2 inhibitor vs. no AG HV” value (probeset 201945_at, gene FURIN) was 1.348 fold, the “Fold Change cPLA2 inhibitor vs. no AG HV” value (probeset 202068_s_at, gene LDLR) was 1.388 fold and the “Fold Change cPLA2 inhibitor vs. no AG HV” value (probeset 202193_at, gene LIMK2) was 1.457 fold. The “Fold Change cPLA2 inhibitor vs. no AG HV” value (probeset 202245_at, gene LSS) was 1.264 fold, the “Fold Change cPLA2 inhibitor vs. no AG HV” value (probeset 202269_x_at, gene GBP1) was 1.475 fold and the “Fold Change cPLA2 inhibitor vs. no AG HV” value (probeset 202307_s_at, gene TAP1) was 1.313 fold. For the same compound, the “Fold Change cPLA2 inhibitor vs. no AG HV” value (probeset 202308_at, gene SREBF1) was 1.436 fold, the “Fold Change cPLA2 inhibitor vs. no AG HV” value (probeset 202510_s_at, gene TNFAIP2) was 1.355 fold and the “Fold Change cPLA2 inhibitor vs. no AG HV” value (probeset 202531_at, gene IRF1) was 1.259 fold. For the same compound, the “Fold Change cPLA2 inhibitor vs. no AG HV” value (probeset 202626_s_at, gene LYN) was 1.54 fold, the “Fold Change cPLA2 inhibitor vs. no AG HV” value (probeset 202841_x_at, gene OGFR) was 1.239 fold and the “Fold Change cPLA2 inhibitor vs. no AG HV” value (probeset 202847_at, gene PCK2) was 1.344 fold. For the same compound, the “Fold Change cPLA2 inhibitor vs. no AG HV” value (probeset 202859_x_at, gene IL8) was 2.42 fold, the “Fold Change cPLA2 inhibitor vs. no AG HV” value (probeset 202917_s_at, gene S100A8) was 1.662 fold and the “Fold Change cPLA2 inhibitor vs. no AG HV” value (probeset 203922_s_at, gene CYBB) was 1.52 fold. The “Fold Change cPLA2 inhibitor vs. no AG HV” value (probeset 203923_s_at, gene CYBB) was 1.214 fold, the “Fold Change cPLA2 inhibitor vs. no AG HV” value (probeset 204034_at, gene ETHE1) was 1.212 fold and the “Fold Change cPLA2 inhibitor vs. no AG HV” value (probeset 204224_s_at, gene GCH1) was 1.48 fold. The “Fold Change cPLA2 inhibitor vs. no AG HV” value (probeset 204326_x_at, gene UNK_NM_002450) was 2.024 fold, the “Fold Change cPLA2 inhibitor vs. no AG HV” value (probeset 204745_x_at, gene MT1G) was 2.215 fold and the “Fold Change cPLA2 inhibitor vs. no AG HV” value (probeset 204858_s_at, gene ECGF1) was 1.292 fold. For the same compound, the “Fold Change cPLA2 inhibitor vs. no AG HV” value (probeset 204929_s_at, gene VAMP5) was 1.472 fold, the “Fold Change cPLA2 inhibitor vs. no AG HV” value (probeset 205322_s_at, gene MTF1) was 1.553 fold and the “Fold Change cPLA2 inhibitor vs. no AG HV” value (probeset 205872_x_at, gene UNK_NM_022359) was 1.629 fold. For the same compound, the “Fold Change cPLA2 inhibitor vs. no AG HV” value (probeset 205992_s_at, gene IL15) was 1.522 fold, the “Fold Change cPLA2 inhibitor vs. no AG HV” value (probeset 206025_s_at, gene TNFAIP6) was 1.671 fold and the “Fold Change cPLA2 inhibitor vs. no AG HV” value (probeset 206026_s_at, gene TNFAIP6) was 1.866 fold. The “Fold Change cPLA2 inhibitor vs. no AG HV” value (probeset 206637_at, gene GPR105) was 1.797 fold, the “Fold Change cPLA2 inhibitor vs. no AG HV” value (probeset 207091_at, gene P2RX7) was 1.272 fold and the “Fold Change cPLA2 inhibitor vs. no AG HV” value (probeset 207277_at, gene CD209) was 1.574 fold. The “Fold Change cPLA2 inhibitor vs. no AG HV” value (probeset 207533_at, gene CCL1) was 2.229 fold, the “Fold Change cPLA2 inhibitor vs. no AG HV” value (probeset 207697_x_at, gene LILRB2) was 1.484 fold and the “Fold Change cPLA2 inhibitor vs. no AG HV” value (probeset 208071_s_at, gene LAIR1) was 1.82 fold. For the same compound, the “Fold Change cPLA2 inhibitor vs. no AG HV” value (probeset 208373_s_at, gene P2RY6) was 1.593 fold, the “Fold Change cPLA2 inhibitor vs. no AG HV” value (probeset 208671_at, gene TDE2) was −1.137 fold and the “Fold Change cPLA2 inhibitor vs. no AG HV” value (probeset 208699_x_at, gene TKT) was 1.243 fold.
